Measured values: US20240217948A1, “CRYSTALLINE FORMS OF A LPA1 ANTAGONIST” (Bristol-Myers Squibb Company, priority 2022, published 2024)

Key:
[1] = Moisture sorption isotherms; type: physicochemical; conditions: 25° C., 4-95% RH (FIG. 4)
Method: Moisture sorption isotherms were collected in a TA Instrument VTI-SA+ Vapor Sorption Analyzer using approximately 270 mg of sample in a 250 μL ceramic pan. The sample was dried at 30° C. until the loss rate of 0.005 wt %/min was obtained for 10 minutes. The sample was tested at 25° C. and 4, 5, 15, 25, 35, 45, 50, 65, 75, 85, and 95% RH. Equilibration at each RH was reached when the rate of 0.01 wt %/min for 35 minutes was achieved or a maximum of 600 minutes.

[2] = system: idiopathic pulmonary fibrosis; conditions: patients with IPF; cited from earlier work
[3] = system: progressive pulmonary fibrosis; conditions: patients with PPF, versus placebo, 52-week study period; cited from earlier work

hygroscopicity [1] | SMILES | decline in lung function [2] | progression of lung fibrosis (annual rate of decline in FVC) [3]
non-hygroscopicity | CCCN(C)C(=O)OCc1c(-c2ccc(O[C@H]3CCC[C@H](C(=O)O)C3)c(C)n2)nnn1C [Form A] |  | 
 | COC(=O)c1ccc2c(c1)NC(=O)/C2=C(\Nc1ccc(N(C)C(=O)CN2CCN(C)CC2)cc1)c1ccccc1 [nintedanib] | significantly reduce the decline in lung function | slower progression of lung fibrosis
 | Cc1ccc(=O)n(-c2ccccc2)c1 [pirfenidone] | significantly reduce the decline in lung function | 
